Laboratory results published in US12590062B2, “PD-1/PD-L1 inhibitors” (Gilead Sciences, Inc., priority 2017, dated 2026).

What was measured:
PD-1/PD-L1 = PD-1/PD-L1 (Homo sapiens, UniProt Q9NZQ7); assay: PD-1/PD-L1 biochemical protein-protein interaction assay (ALPHA); type: binding; settings: 0.3 nM His tagged PD-L1, 2.5 nM biotinylated Fc-PD-1, 60 minutes at 25° C., read-out: IC50 PD-L1-PD-1 Alpha IC50-mono PD-L1-fcP-D1
Procedure, shortened: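 IC50 values derive from four-parameter fits of ALPHA signal decrease. Assay: 0.3 nM His-tagged PD-L1 with 2.5 nM biotinylated Fc-PD-1, Hepes pH 7.4 with 0.005% Tween 20 and 0.01% BSA, 60 min at 25° C, then anti-His acceptor and streptavidin donor beads.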

PD-L1 = molecular target: T1, PD-L1 (Homo sapiens, UniProt Q9NZQ7); assay: PD-L1/PD-L1 dimerization biochemical protein-protein interaction assay (ALPHA); type: binding; settings: compound-induced PD-L1 dimerization, head prints '1 nM' (0.5 nM His-tagged PD-L1 and 0.5 nM FLAG-tagged PD-L1), read-out: AC50 PDL1 Dimer Alpha 1 nM
T1 construct: determine if they can specifically dimerize the extracellular domains of PD-L1
T1 sequence (Q9NZQ7 19-238 limits assumed): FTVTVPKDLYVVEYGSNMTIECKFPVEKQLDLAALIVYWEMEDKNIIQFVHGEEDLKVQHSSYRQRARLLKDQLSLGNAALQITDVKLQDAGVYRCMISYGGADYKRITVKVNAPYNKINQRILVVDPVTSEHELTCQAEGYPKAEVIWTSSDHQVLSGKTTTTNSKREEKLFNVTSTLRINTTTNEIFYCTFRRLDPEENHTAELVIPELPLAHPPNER
T1 sequence (Q9NZQ7 19-238 limits assumed): as above
Procedure, shortened: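 After 2 h at 25 °C with compound, His- and FLAG-tagged PD-L1 ECDs (each 0.5 nM final; 25 mM Hepes pH 7.4, 150 mM NaCl) were detected by sequential anti-His acceptor and anti-FLAG donor bead incubations. Dose-response curves fitted to four-parameter equation for AC50.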

PD-1/PD-L1 interaction = molecular target: T2, PD-1/PD-L1 interaction (Homo sapiens, UniProt Q9NZQ7); assay: PD-1/PD-L1 NFAT reporter co-culture assay; type: cell-based; settings: Jurkat PD-1 NFAT-luciferase cells co-cultured with aAPC-PD-L1 CHO cells, 6 hrs at 37° C.; read-out: EC50 NFAT Luciferase
T2 construct: expressed in transfected cells; host or cells: CHO cells (aAPC-PD-L1) co-cultured with Jurkat cells overexpressing PD-1 and an NFAT-luciferase reporter
T2 sequence (Q9NZQ7 19-290): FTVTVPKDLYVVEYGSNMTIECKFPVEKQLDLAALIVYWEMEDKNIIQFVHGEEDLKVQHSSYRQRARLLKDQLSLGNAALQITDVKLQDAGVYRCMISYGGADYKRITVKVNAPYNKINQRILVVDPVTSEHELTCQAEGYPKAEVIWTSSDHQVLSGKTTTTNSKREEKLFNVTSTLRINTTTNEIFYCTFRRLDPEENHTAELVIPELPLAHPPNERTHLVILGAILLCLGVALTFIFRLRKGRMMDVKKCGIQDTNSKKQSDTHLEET
Procedure, shortened: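 CHO aAPC-PD-L1 seeded overnight; PD-1/NFAT-luc Jurkat + cpd in RPMI 1640, 2% FBS added at once; 6 h, 37 °C; ONE-Glo luminescence; EC50, 4-parameter fit.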

Sequence of PD-1/PD-L1 (Q9NZQ7 19-238 limits assumed): as the sequence (Q9NZQ7 19-238 limits assumed) above

COc1nc(-c2cccc(-c3cccc(-c4ccc5ncc(CN6CC(O)C6)n5c4)c3Cl)c2Cl)ccc1CN1CC(O)C1 [Example 615]
IC50 (PD-1/PD-L1): 7.88 nM | AC50 (PD-L1): ≥ 10000 nM | EC50 (PD-1/PD-L1 interaction): ≥ 50000 nM

COc1nc(-c2cccc(-c3cccc(-c4ccn5cc(CN6CC(O)C6)nc5c4)c3Cl)c2Cl)ccc1CN1CC(O)C1 [Example 616]
IC50 (PD-1/PD-L1): 0.295 nM | AC50 (PD-L1): 156 nM | EC50 (PD-1/PD-L1 interaction): ≥ 50000 nM

COc1nc(-c2cccc(-c3cccc(-c4ccn5cc(CN(C)C)nc5c4)c3Cl)c2Cl)ccc1CN(C)C [Example 617]
IC50 (PD-1/PD-L1): 0.17 nM | AC50 (PD-L1): 265 nM | EC50 (PD-1/PD-L1 interaction): ≥ 50000 nM

COc1nc(-c2cccc(-c3cccc(-c4ccn5cc(CN6CC7(CCC(=O)N7)C6)nc5c4)c3Cl)c2Cl)ccc1CN1CC2(CCC(=O)N2)C1 [Example 618]
IC50 (PD-1/PD-L1): 0.224 nM | AC50 (PD-L1): 389 nM | EC50 (PD-1/PD-L1 interaction): ≥ 50000 nM

COc1nc(-c2cccc(-c3cccc(-c4ccn5cc(CNC[C@@H]6CCC(=O)N6)nc5c4)c3Cl)c2Cl)ccc1CNC[C@@H]1CCC(=O)N1 [Example 619]
IC50 (PD-1/PD-L1): 0.159 nM | AC50 (PD-L1): 118 nM | EC50 (PD-1/PD-L1 interaction): 187 nM

COc1nc(-c2cccc(-c3cccc(-c4ccc5ncc(CNCCO)n5c4)c3Cl)c2Cl)ccc1CNCCO [Example 620]
IC50 (PD-1/PD-L1): 2.84 nM | AC50 (PD-L1): ≥ 10000 nM | EC50 (PD-1/PD-L1 interaction): ≥ 50000 nM

COc1nc(-c2cccc(-c3cccc(-c4ccc5ncc(CNC[C@@H](O)CC(=O)O)n5c4)c3Cl)c2Cl)ccc1CNC[C@@H](O)CC(=O)O [Example 621]
IC50 (PD-1/PD-L1): 1.04 nM | AC50 (PD-L1): ≥ 10000 nM | EC50 (PD-1/PD-L1 interaction): ≥ 50000 nM

COc1nc(-c2cccc(-c3cccc(-c4ccc5ncc(CNC[C@@H]6CCC(=O)N6)n5c4)c3Cl)c2Cl)ccc1CNC[C@@H]1CCC(=O)N1 [Example 622]
IC50 (PD-1/PD-L1): 0.567 nM | AC50 (PD-L1): ≥ 10000 nM | EC50 (PD-1/PD-L1 interaction): ≥ 50000 nM

COc1nc(-c2cccc(-c3cccc(-c4ccc5c(c4)[C@H](N)CC5)c3Cl)c2Cl)ccc1C1=NCCN1 [Example 623]
IC50 (PD-1/PD-L1): 5.2 nM | AC50 (PD-L1): ≥ 10000 nM | EC50 (PD-1/PD-L1 interaction): ≥ 50000 nM

COc1nc(-c2cccc(-c3cccc(-c4ccc5c(c4)CCC5N)c3Cl)c2Cl)ccc1C1=NCCN1 (stereo not drawn) [Example 624]
IC50 (PD-1/PD-L1): 0.109 nM | AC50 (PD-L1): 20.9 nM | EC50 (PD-1/PD-L1 interaction): ≥ 50000 nM

COc1nc(-c2cccc(-c3cccc(-c4ccc5c(c4)C[C@@H](N)C5)c3Cl)c2Cl)ccc1C1=NCCN1 [Example 625]
IC50 (PD-1/PD-L1): 0.238 nM | AC50 (PD-L1): 98.2 nM | EC50 (PD-1/PD-L1 interaction): ≥ 50000 nM

O=C1CC[C@@H](CNCc2ccc(-c3cccc(-c4cccc(-c5ccc(CNC[C@@H]6CCC(=O)N6)c(N6CCOCC6)c5)c4Cl)c3Cl)cc2N2CCOCC2)N1 [Example 626]
IC50 (PD-1/PD-L1): 3.08 nM | AC50 (PD-L1): ≥ 10000 nM | EC50 (PD-1/PD-L1 interaction): ≥ 50000 nM

COc1cc(-c2cccc(-c3cccc(-c4ccc(CNCCO)c(OC)c4)c3C)c2C)ccc1CNCCO [Example 627]
IC50 (PD-1/PD-L1): 2.44 nM | AC50 (PD-L1): 480 nM | EC50 (PD-1/PD-L1 interaction): ≥ 50000 nM

COc1cc(-c2cccc(-c3cccc(-c4cnc(C5=NCCN5)c(OC)c4)c3Cl)c2Cl)cnc1CNC[C@@H](O)CC(=O)O [Example 629]
IC50 (PD-1/PD-L1): 0.064 nM | AC50 (PD-L1): ≥ 10000 nM | EC50 (PD-1/PD-L1 interaction): 251 nM

COc1cc(-c2cccc(-c3cccc(-c4cnc(C5=NCCN5)c(OC)c4)c3Cl)c2Cl)cnc1C1=NCCN1 [Example 630]
IC50 (PD-1/PD-L1): 0.064 nM | AC50 (PD-L1): ≥ 10000 nM | EC50 (PD-1/PD-L1 interaction): 165 nM

COc1nc(-c2cccc(-c3cccc(N4Cc5cc(CN6CC7(CCC(=O)N7)C6)ccc5C4=O)c3Cl)c2Cl)ccc1CN1CC2(CCC(=O)N2)C1 [Example 631]
IC50 (PD-1/PD-L1): 0.13 nM | AC50 (PD-L1): 441 nM | EC50 (PD-1/PD-L1 interaction): ≥ 50000 nM

COc1nc(-c2cccc(-c3cccc(N4Cc5cc(CNC[C@@H]6CCC(=O)N6)ccc5C4=O)c3Cl)c2Cl)ccc1CNC[C@@H]1CCC(=O)N1 [Example 632]
IC50 (PD-1/PD-L1): 0.147 nM | AC50 (PD-L1): 314 nM | EC50 (PD-1/PD-L1 interaction): 2980 nM

COc1nc(-c2cccc(-c3cccc(-c4nc5ccc(CNC[C@@H]6CCC(=O)N6)cn5n4)c3Cl)c2Cl)ccc1CNC[C@@H]1CCC(=O)N1 [Example 633]
IC50 (PD-1/PD-L1): 1.26 nM | AC50 (PD-L1): 2840 nM | EC50 (PD-1/PD-L1 interaction): 2280 nM

COc1nc(-c2cccc(-c3cccc(-c4nc5cc(CNCCO)cc(OC)c5o4)c3Cl)c2Cl)ccc1CNCCO [Example 634]
IC50 (PD-1/PD-L1): 0.208 nM | AC50 (PD-L1): 96.9 nM | EC50 (PD-1/PD-L1 interaction): 495 nM

OCCNCc1cc(Cl)c2nc(-c3cccc(-c4cccc(-c5nc6c(Cl)cc(CNCCO)cn6n5)c4Cl)c3Cl)nn2c1 [Example 635]
IC50 (PD-1/PD-L1): 0.1 nM | AC50 (PD-L1): 340 nM | EC50 (PD-1/PD-L1 interaction): ≥ 50000 nM

COc1nc(-c2cccc(-c3cccc(-c4nc5cc(CNCCO)ccc5o4)c3Cl)c2Cl)ccc1CNCCO [Example 636]
IC50 (PD-1/PD-L1): 0.188 nM | AC50 (PD-L1): 83.6 nM | EC50 (PD-1/PD-L1 interaction): 180 nM

CS(=O)(=O)c1cncc(COc2nc(O[C@H]3CCc4c(-c5cccc(-c6ccc(OCCNCCO)cc6)c5Cl)cccc43)c(Cl)cc2CNC[C@@H](O)CC(=O)O)c1 [Example 637, (S)-4-(((5-chloro-6-(((S)-4-(2-chloro-4′-(2-((2-hydroxyethyl)amino)ethoxy)-[1,1′-biphenyl]-3-yl)-2,3-dihydro-1H-inden-1-yl)oxy)-2-((5-(methylsulfonyl)pyridin-3-yl)methoxy)pyridin-3-yl)methyl)amino)-3-hydroxybutanoic acid]
IC50 (PD-1/PD-L1): 0.064 nM | AC50 (PD-L1): 20.8 nM | EC50 (PD-1/PD-L1 interaction): 90 nM

COc1nc(O[C@H]2CCc3c(-c4cccc(-c5nc6cc(CNCCO)ccn6n5)c4Cl)cccc32)c(Cl)cc1CNCCO [Example 638, (S)-2-(((2-(2-chloro-3-(1-((3-chloro-5-(((2-hydroxyethyl)amino)methyl)-6-methoxypyridin-2-yl)oxy)-2,3-dihydro-1H-inden-4-yl)phenyl)-[1,2,4]triazolo[1,5-a]pyridin-7-yl)methyl)amino)ethan-1-ol]
IC50 (PD-1/PD-L1): 0.064 nM | AC50 (PD-L1): 23.8 nM | EC50 (PD-1/PD-L1 interaction): 429 nM

COc1nc(-c2cccc(-c3cccc4c3CC[C@@H]4Oc3nc(OC)c(CN4CC[C@@H](c5nnn[nH]5)C4)cc3Cl)c2Cl)ccc1CNC[C@@H]1CCC(=O)N1 [Example 641]
IC50 (PD-1/PD-L1): 0.064 nM | AC50 (PD-L1): 34.7 nM | EC50 (PD-1/PD-L1 interaction): 60 nM

COc1nc(O[C@H]2CCc3c(-c4cccc(-c5cnc(CNC[C@@H]6CCC(=O)N6)c(OC)n5)c4Cl)cccc32)c(Cl)cc1CN[C@@H]1CCC[C@@H]1O [Example 642]
IC50 (PD-1/PD-L1): 2.36 nM | AC50 (PD-L1): 67.2 nM | EC50 (PD-1/PD-L1 interaction): 194 nM

COc1nc(O[C@H]2CCc3c(-c4cccc(-c5cnc(CN[C@@H]6CCC[C@@H]6O)c(OC)n5)c4Cl)cccc32)c(Cl)cc1CN[C@@H]1CCC[C@@H]1O [Example 643]
IC50 (PD-1/PD-L1): 0.734 nM | AC50 (PD-L1): 39 nM | EC50 (PD-1/PD-L1 interaction): 89 nM

COc1nc(-c2cccc(-c3cccc4c3CC[C@@H]4Oc3nc(OC)c(CNC[C@@H]4CCC(=O)N4)cc3Cl)c2Cl)ccc1CN[C@@H]1CCC[C@@H]1O [Example 644]
IC50 (PD-1/PD-L1): 1.95 nM | AC50 (PD-L1): 136 nM | EC50 (PD-1/PD-L1 interaction): 82 nM

COc1nc(-c2cccc(-c3cccc4c3CC[C@@H]4Oc3nc(OC)c(CN[C@@](C)(CO)C(=O)O)cc3Cl)c2Cl)ccc1CN[C@@H]1CCC[C@@H]1O [Example 645]
IC50 (PD-1/PD-L1): 0.064 nM | AC50 (PD-L1): 30.7 nM | EC50 (PD-1/PD-L1 interaction): 30 nM

COc1nc(-c2cccc(-c3cccc4c3CC[C@@H]4Oc3nc(OC)c(CN[C@@H]4CCC[C@@H]4O)cc3Cl)c2Cl)ccc1CN[C@@H]1CCC[C@@H]1O [Example 646]
IC50 (PD-1/PD-L1): 6.25 nM | AC50 (PD-L1): 73.2 nM | EC50 (PD-1/PD-L1 interaction): 145 nM

COc1nc(O[C@H]2CCc3c(-c4cccc(-c5cnc(CN[C@@H]6CCC[C@@H]6O)c(OC)n5)c4Cl)cccc32)c(Cl)cc1CNC[C@@H]1CCC(=O)N1 [Example 647]
IC50 (PD-1/PD-L1): 1.89 nM | AC50 (PD-L1): 211 nM | EC50 (PD-1/PD-L1 interaction): 234 nM

COc1nc(O[C@H]2CCc3c(-c4cccc(-c5cnc(CN[C@@H]6CCC[C@@H]6O)c(OC)n5)c4Cl)cccc32)c(Cl)cc1CN[C@@](C)(CO)C(=O)O [Example 648]
IC50 (PD-1/PD-L1): 0.064 nM | AC50 (PD-L1): 60.9 nM | EC50 (PD-1/PD-L1 interaction): 57 nM
